# Data as given in the supplement of paper PMC10307832.
# What was measured:
# Experiment in all cases: relative viability (nuclei count vs DMSO), 5 days (fraction); higher = more cells survive
# NCI-H2170 = test system: NCI-H2170
# Procedure, shortened: (§1)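 Medians of duplicate plates are given as relative viability. That measure is the nuclei count in treated wells divided by the count in vehicle wells. Counts were taken on 4× images of lung cancer cell lines in 1536-well plates, 5 days after pin-tool dosing the day after seeding with one drug alone or a fixed anchor-drug dose plus five library-drug doses (not always all listed) in √10 steps.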
# NCI-H441 = test system: NCI-H441
# Procedure, shortened: as §1
# NCI-H1666 = test system: NCI-H1666
# Procedure, shortened: as §1
# NCI-H727 = test system: NCI-H727
# Procedure, shortened: as §1
# EPLC-272H = test system: EPLC-272H
# Procedure, shortened: as §1
# NCI-H838 = test system: NCI-H838
# Procedure, shortened: as §1
# LCLC-103H = test system: LCLC-103H
# Procedure, shortened: as §1
# PC-3 [JPC-3] = test system: PC-3 [JPC-3]
# Procedure, shortened: as §1
# NCI-H1792 = test system: NCI-H1792
# Procedure, shortened: as §1
# NCI-H2342 = test system: NCI-H2342
# Procedure, shortened: as §1
# NCI-H2228 = test system: NCI-H2228
# Procedure, shortened: as §1
# NCI-H1755 = test system: NCI-H1755
# Procedure, shortened: as §1
# EMC-BAC-2 = test system: EMC-BAC-2
# Procedure, shortened: as §1
# HCC-78 = test system: HCC-78
# Procedure, shortened: as §1
# SK-MES-1 = test system: SK-MES-1
# Procedure, shortened: as §1
# NCI-H1793 = test system: NCI-H1793
# Procedure, shortened: as §1
# 201T = test system: 201T
# Procedure, shortened: as §1
# NCI-H2126 = test system: NCI-H2126
# Procedure, shortened: as §1
# NCI-H1355 = test system: NCI-H1355
# Procedure, shortened: as §1
# SW 1573 = test system: SW 1573
# Procedure, shortened: as §1
# NCI-H520 = test system: NCI-H520
# Procedure, shortened: as §1
# NCI-H1975 = test system: NCI-H1975
# Procedure, shortened: as §1
smiles,measurement,setting,value
Nc1cccc2c1CN(C1CCC(=O)NC1=O)C2=O (centres undefined) [Lenalidomide] + Cc1nc(Nc2ncc(C(=O)Nc3c(C)cccc3Cl)s2)cc(N2CCN(CCO)CC2)n1 [Dasatinib] (partner 0.075 µM),relative viability,NCI-H2170; first compound 0.253 µM,0.547
same,relative viability,NCI-H2170; first compound 0.8 µM,0.47
same,relative viability,NCI-H2170; first compound 2.53 µM,0.571
same,relative viability,NCI-H2170; first compound 8 µM,0.454
same,relative viability,NCI-H441; first compound 0.253 µM,0.67
same,relative viability,NCI-H441; first compound 0.8 µM,0.518
same,relative viability,NCI-H441; first compound 2.53 µM,0.648
same,relative viability,NCI-H441; first compound 8 µM,0.493
same,relative viability,NCI-H1666; first compound 0.253 µM,0.858
same,relative viability,NCI-H1666; first compound 2.53 µM,0.849
same,relative viability,NCI-H1666; first compound 8 µM,0.783
same,relative viability,NCI-H727; first compound 0.253 µM,0.357
same,relative viability,NCI-H727; first compound 0.8 µM,0.326
same,relative viability,NCI-H727; first compound 2.53 µM,0.335
same,relative viability,NCI-H727; first compound 8 µM,0.384
same,relative viability,EPLC-272H; first compound 0.253 µM,0.379
same,relative viability,EPLC-272H; first compound 0.8 µM,0.358
same,relative viability,EPLC-272H; first compound 2.53 µM,0.321
same,relative viability,EPLC-272H; first compound 8 µM,0.235
same,relative viability,NCI-H838; first compound 0.253 µM,0.368
same,relative viability,NCI-H838; first compound 0.8 µM,0.301
same,relative viability,NCI-H838; first compound 2.53 µM,0.302
same,relative viability,NCI-H838; first compound 8 µM,0.252
same,relative viability,LCLC-103H; first compound 0.253 µM,0.442
same,relative viability,LCLC-103H; first compound 0.8 µM,0.325
same,relative viability,LCLC-103H; first compound 2.53 µM,0.453
same,relative viability,LCLC-103H; first compound 8 µM,0.296
same,relative viability,PC-3 [JPC-3]; first compound 0.253 µM,1
same,relative viability,PC-3 [JPC-3]; first compound 0.8 µM,0.901
same,relative viability,PC-3 [JPC-3]; first compound 2.53 µM,1.08
same,relative viability,PC-3 [JPC-3]; first compound 8 µM,1.04
same,relative viability,NCI-H1792; first compound 0.253 µM,0.8
same,relative viability,NCI-H1792; first compound 0.8 µM,0.69
same,relative viability,NCI-H1792; first compound 2.53 µM,0.893
same,relative viability,NCI-H1792; first compound 8 µM,0.865
same,relative viability,NCI-H2342; first compound 0.253 µM,0.312
same,relative viability,NCI-H2342; first compound 0.8 µM,0.305
same,relative viability,NCI-H2342; first compound 2.53 µM,0.322
same,relative viability,NCI-H2342; first compound 8 µM,0.3
same,relative viability,NCI-H2228; first compound 0.253 µM,0.444
same,relative viability,NCI-H2228; first compound 0.8 µM,0.58
same,relative viability,NCI-H2228; first compound 2.53 µM,0.562
same,relative viability,NCI-H2228; first compound 8 µM,0.405
same,relative viability,NCI-H1755; first compound 0.253 µM,0.404
same,relative viability,NCI-H1755; first compound 0.8 µM,0.216
same,relative viability,NCI-H1755; first compound 2.53 µM,0.428
same,relative viability,NCI-H1755; first compound 8 µM,0.33
same,relative viability,EMC-BAC-2; first compound 0.253 µM,0.319
same,relative viability,EMC-BAC-2; first compound 0.8 µM,0.28
same,relative viability,EMC-BAC-2; first compound 2.53 µM,0.33
same,relative viability,EMC-BAC-2; first compound 8 µM,0.256
same,relative viability,HCC-78; first compound 0.253 µM,0.52
same,relative viability,HCC-78; first compound 0.8 µM,0.371
same,relative viability,HCC-78; first compound 2.53 µM,0.465
same,relative viability,HCC-78; first compound 8 µM,0.308
same,relative viability,SK-MES-1; first compound 0.253 µM,0.421
same,relative viability,SK-MES-1; first compound 0.8 µM,0.422
same,relative viability,SK-MES-1; first compound 2.53 µM,0.499
same,relative viability,SK-MES-1; first compound 8 µM,0.413
same,relative viability,NCI-H1793; first compound 0.253 µM,0.349
same,relative viability,NCI-H1793; first compound 2.53 µM,0.412
same,relative viability,NCI-H1793; first compound 8 µM,0.212
same,relative viability,201T; first compound 0.253 µM,0.598
same,relative viability,201T; first compound 2.53 µM,0.581
same,relative viability,201T; first compound 8 µM,0.538
same,relative viability,NCI-H2126; first compound 0.253 µM,0.661
same,relative viability,NCI-H2126; first compound 0.8 µM,0.559
same,relative viability,NCI-H2126; first compound 2.53 µM,0.678
same,relative viability,NCI-H2126; first compound 8 µM,0.479
same,relative viability,NCI-H1355; first compound 0.253 µM,0.701
same,relative viability,NCI-H1355; first compound 2.53 µM,0.744
same,relative viability,NCI-H1355; first compound 8 µM,0.403
same,relative viability,SW 1573; first compound 0.253 µM,0.637
same,relative viability,SW 1573; first compound 0.8 µM,0.547
same,relative viability,SW 1573; first compound 2.53 µM,0.455
same,relative viability,SW 1573; first compound 8 µM,0.392
same,relative viability,NCI-H520; first compound 0.253 µM,0.188
same,relative viability,NCI-H520; first compound 0.8 µM,0.192
same,relative viability,NCI-H520; first compound 2.53 µM,0.235
same,relative viability,NCI-H520; first compound 8 µM,0.159
same,relative viability,NCI-H1975; first compound 0.253 µM,0.406
same,relative viability,NCI-H1975; first compound 0.8 µM,0.287
same,relative viability,NCI-H1975; first compound 2.53 µM,0.486
same,relative viability,NCI-H1975; first compound 8 µM,0.366
